Nc1cccc2ccccc12
solubility (mole fraction)
Details	273.15 K	278.15 K	283.15 K	288.15 K	293.15 K	298.15 K	303.15 K	308.15 K
in acetone	0.552	0.59	0.636	0.684	0.724	0.778	0.839	0.898
in acetonitrile	0.527	0.572	0.619	0.658	0.708	0.766	0.829	0.878
in cyclohexane	–	0.00758	0.00992	0.014	0.0185	0.0263	0.0364	0.0621
in ethanol	0.133	0.176	0.231	0.323	0.431	0.555	0.698	0.833
in ethyl acetate	0.49	0.528	0.57	0.611	0.66	0.728	0.788	0.863
in isobutanol	0.0584	0.0819	0.118	0.157	0.251	0.382	0.585	0.841
in isopropanol	0.0524	0.0814	0.123	0.198	0.294	0.461	0.637	0.845
in methanol	0.192	0.245	0.296	0.375	0.477	0.591	0.703	0.845
in n-butanol	0.112	0.145	0.194	0.247	0.353	0.487	0.664	0.84
in n-butyl acetate	0.441	0.485	0.532	0.585	0.645	0.706	0.777	0.849
in n-heptane	0.00549	0.0073	0.00879	0.0115	0.0155	0.0205	0.026	0.0346
in n-propanol	0.0925	0.133	0.181	0.256	0.365	0.512	0.669	0.838
